The results in this text go back to patent publication US11298363B2, “Triazolobenzazepines as vasopressin V1a receptor antagonists” (RICHTER GEDEON NYRT., priority 2017, dated 2022).

Where a name gives a salt, the structure may show the parent alone.

For assay [1], the target named is T1, human vasopressin V1a receptor (Homo sapiens, UniProt P37288). In words: Functional assay on human vasopressin V1a receptor expressing cell line (intracellular Ca2+ fluorescence). The assay is classed as cell-based. The note with it: 1321N1 cells, (Arg8)-vasopressin at EC80; read-out: IC50 (nM) on hV1a cell line. How it is done:
Functional Assay to Test Compounds on Human Vasopressin V1a Receptor Expressing Cell Line
The ordinary secondary messenger pathway of the measured GPCR receptor was used, the endogenous Gq-associated system.
Using 30,000 cells/plate, compounds were measured on 96-well plates. The buffer composition of the measurements was the following (expressed in mM): 140 NaCl, 5 KCl, 2 CaCl2), 2 MgCl2, 10 glucose, 10 HEPES (4-(2-hydroxyethyl)-1-piperazine-ethanesulfonic acid), 2 probenecid, pH=7.4. FLIPR Calcium 5 kit (Molecular Devices) was used as fluorescent dye, the medium was not removed prior to filling with the dye and the cells were not washed out either before or after. The incubation was performed at room temperature, the final concentration of DMSO was 1%. The materials to be measured were administered in 15 to 20 minutes pretreatment, at least two parallels of each compound in each concentration was measured.
Fluorescence signal was used to determine the intracellular Ca^2+ level, the reader was FlexStation II96. […] The fluorescence signal was logged in every 1.4 seconds for 1 minute. The reference compounds used were the following: (Arg^8)-vasopressin as agonist at concentration of EC80, determined for each plate, and relcovaptan as antagonist at 1 μM. The % of inhibition at each concentration and the IC50 value of the compounds were determined where a concentration line was also measured.
The total AVP concentration-response curve was recorded on each plate. The effect of compounds measured was expressed by percentage of relative inhibition compared to control response. […] The average IC50 values were calculated from at least three independent measurements in all cases.

Assay [2] concerns the target T1, human vasopressin V1a receptor. In words: Human vasopressin V1a receptor binding assay. The note with it: 1321N1 cell membranes, [3H]vasopressin; read-out: Ki (nM) on hV1a cell line. Here is the method: Human Vasopressin V1a Receptor Binding Assay
Cells were suspended in preparative buffer (50 mM Tris, 1 mM EDTA, 0.1 mM PMSF) and homogenized with glass homogenizing potter. To separate the raw membrane fraction two consecutive centrifugation procedures (40,000 g for 20 minutes at 4° C.) were executed, then the membrane was taken into the preparatory buffer during a final washing step, it was divided into aliquots which were stored at −80° C. until the time of measurement.
To determine the final affinity value, the results of at least two independent experiments were taken into account.
Non-specific binding values were determined in the presence of unlabeled 1.2×10^−6 M (Arg^8)-vasopressin. Samples were incubated in a total volume of 0.33 ml for 60 minutes at 27° C. Membrane-bound and free ligands were separated by filtration through a 0.5% polyethyleneimine-impregnated UniFilter® GF/B™. After drying the filter plates, 40 μl Microscint-20 (Packard) scintillation cocktail was added to the samples. Finally, radioactivity was measured using MicroBeta^2 Microplate Counter (Perkin Elmer).
During fitting, the asymptotes are not fixed. The K values (inhibition constant) are given with Cheng-Prusoff equation Ki=IC50/[1+(L/KD)] wherein [L] is the radioligand concentration used in the experiment and [KD] is the affinity of the radioactively labelled ligand for the given receptor. The KD is determined beforehand using the Scatchard curve.

T1 sequence (P37288 whole entry): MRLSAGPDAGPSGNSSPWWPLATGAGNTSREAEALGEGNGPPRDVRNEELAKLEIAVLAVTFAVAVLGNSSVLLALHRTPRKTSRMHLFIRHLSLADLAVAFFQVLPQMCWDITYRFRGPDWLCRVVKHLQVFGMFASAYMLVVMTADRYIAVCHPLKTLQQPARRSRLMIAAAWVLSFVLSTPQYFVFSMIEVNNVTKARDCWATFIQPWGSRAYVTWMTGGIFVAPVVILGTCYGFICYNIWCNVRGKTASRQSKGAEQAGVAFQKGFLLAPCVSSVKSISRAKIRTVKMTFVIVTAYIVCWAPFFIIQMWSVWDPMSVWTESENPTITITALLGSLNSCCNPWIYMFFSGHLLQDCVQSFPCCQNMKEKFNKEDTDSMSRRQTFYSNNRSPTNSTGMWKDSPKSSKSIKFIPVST

`CC(=O)N[C@H]1Cc2cc(Cl)ccc2-n2c(nnc2[C@H]2CC[C@H](Oc3ccccn3)CC2)C1` [Example 68, (5S)—N-{8-chloro-1[trans-4-(pyridin-2-yloxy)cyclohexyl]-5,6-dihydro-4H-[1,2,4]triazolo[4,3-a][1]benzazepin-5-yl}acetamide]: the IC50 (commonly the concentration at which inhibition is half-maximal) in assay [1] was determined as 33 nM. In assay [2], the inhibition constant Ki (commonly a dissociation constant, usually derived from enzyme kinetics or from competition with a known ligand) was found to be 9.4 nM.

Turning to `Clc1ccc2c(c1)CC1(Cc3nnc([C@H]4CC[C@H](CN5CCCCC5)CC4)n3-2)OCCO1` [Example 69, 8′-chloro-1′-[trans-4-(piperidin-1-ylmethyl)cyclohexyl]-4′H,6′H-spiro[1,3-dioxolane-2,5′-[1,2,4]triazolo[4,3-a][1]benzazepine]], in assay [1], the IC50 stood at 139 nM. In addition, the inhibition constant Ki in assay [2] amounted to 10 nM.

As for `O=C([C@H]1CC[C@H](c2nnc3n2-c2ccc(Cl)cc2CC2(C3)OCCO2)CC1)N1CCCC1` [Example 70, [Trans-4-(8′-chloro-4′H,6′H-spiro[1,3-dioxolane-2,5′-[1,2,4]triazolo[4,3-a][1]benzazepine]-1′-yl)cyclohexyl](pyrrolidin-1-yl)methanone], the IC50 in assay [1] is 1.2 nM. In addition, the inhibition constant Ki in assay [2] is 0.4 nM.

On to `O=C1Cc2cc(Cl)ccc2-n2c(nnc2[C@H]2CC[C@H](C(F)(F)F)CC2)C1` [Example 71, 8-chloro-1-[trans-4-(trifluoromethyl)cyclohexyl]-4H-[1,2,4]triazolo[4,3-a][1]benzazepin-5(6H)-one], for which the half-inhibitory concentration (IC50) in assay [1] came out at 22 nM. In addition, the inhibition constant (Ki) in assay [2] worked out at 14 nM.

Take `OC1Cc2cc(Cl)ccc2-n2c(nnc2[C@H]2CC[C@H](C(F)(F)F)CC2)C1` (stereo partly drawn) [Example 72, 8-chloro-1-[trans-4-(trifluoromethyl)cyclohexyl]-5,6-dihydro-4H-[1,2,4]triazolo[4,3-a][1]benzazepine-5-ol]: in assay [1], the IC50 was found to be 21 nM. In assay [2], the inhibition constant Ki is 7.5 nM.

For the molecule `CN1C[C@]2(CC[C@H](c3nnc4n3-c3ccc(Cl)cc3CC3(C4)OCCO3)CC2)OC1=O` [Example 73, (cis)-8-(8′-chloro-4′H,6′H-spiro[1,3-dioxolane-2,5′-[1,2,4]triazolo[4,3-a][1]benzazepine]-1′-il)-3-methyl-1-oxa-3-azaspiro[4.5]decan-2-one], the IC50 in assay [1] turned out to be 3.3 nM. Besides, the Ki in assay [2] was determined as 1.6 nM.

As for `CN1C[C@]2(CC[C@@H](c3nnc4n3-c3ccc(Cl)cc3CC3(C4)OCCO3)CC2)OC1=O` [Example 75, (trans)-8-(8′-chloro-4′H, 6′H-spiro[1,3-dioxolane-2,5′-[1,2,4]triazolo[4,3-a][1]benzazepin]-1′-yl)-3-methyl-1-oxa-3-azaspiro[4.5]decan-2-one], the IC50 in assay [1] was determined as 10.4 nM. In addition, the inhibition constant (Ki) in assay [2] came out at 3.7 nM.

In the case of `CN([C@H]1Cc2cc(Cl)ccc2-n2c(nnc2[C@H]2CC[C@H](Oc3ccccn3)CC2)C1)S(C)(=O)=O` [Example 76, N-{(5S)-8-chloro-1-[trans-4-(pyridin-2-yloxy)cyclohexyl]-5,6-dihydro-4H-[1,2,4]triazolo[4,3-a][1]benzazepin-5-yl}-N-methylmethanesulfonamide], the half-inhibitory concentration (IC50) in assay [1] worked out at 2.2 nM. For the same molecule, in assay [2], the Ki is 1.1 nM.

Turning to `CCN[C@H]1Cc2cc(Cl)ccc2-n2c(nnc2[C@H]2CC[C@H](Oc3ccccn3)CC2)C1` [Example 77, (5S)-8-chloro-N-ethyl-1-[trans-4-(pyridin-2-yloxy)cyclohexyl]-5,6-dihydro-4H-[1,2,4]triazolo[4,3-a][1]benzazepine-5-amine], the IC50 in assay [1] was 18 nM. Besides, the inhibitory constant (Ki) in assay [2] worked out at 1.9 nM.

With `CN[C@H]1Cc2cc(Cl)ccc2-n2c(nnc2[C@H]2CC[C@H](Oc3ccccn3)CC2)C1` [Example 78, (5S)-8-chloro-N-methyl-1-[trans-4-(pyridin-2-yloxy)cyclohexyl]-5,6-dihydro-4H-[1,2,4]triazolo[4,3-a][1]benzazepine-5-amine], in assay [1], the IC50 turned out to be 12 nM. Also, the inhibition constant (Ki) in assay [2] worked out at 1.7 nM.

As to `Clc1ccc2c(c1)CC1(Cc3nnc(C4CN(c5ncccn5)C4)n3-2)OCCO1` [Example 79], in assay [1], the IC50 was 1860 nM. The Ki in assay [2] is 71 nM.

As to `O=C(N[C@H]1Cc2cc(Cl)ccc2-n2c(nnc2[C@H]2CC[C@H](Oc3ccccn3)CC2)C1)c1ccc(F)cc1` [Example 80], the IC50 in assay [1] amounted to 520 nM. In assay [2], the Ki was 58 nM.

For the molecule `FC(F)(F)[C@H]1CC[C@H](c2nnc3n2-c2ccc(Br)cc2CC2(C3)OCCO2)CC1` [Example 81, 8′-bromo-1′-[trans-4-(trifluoromethyl)cyclohexyl]-4′H,6′H-spiro[1,3-dioxolane-2,5′-[1,2,4]triazolo[4,3-a][1]benzazepine]], the half-maximal inhibitory concentration (IC50) in assay [1] worked out at 1.4 nM. In addition, in assay [2], the inhibition constant (Ki) is 0.2 nM.

On to `CC(C)NC1Cc2cc(C#N)ccc2-n2c(nnc2[C@H]2CC[C@H](Oc3ccccn3)CC2)C1` (stereo partly drawn) [Example 82, 5-(propan-2-ylamino)-1-[trans-4-(pyridin-2-yloxy)cyclohexyl]-5,6-dihydro-4H-[1,2,4]triazolo[4,3-a][1]benzazepin-8-carbonitrile trifluoroacetate], for which the IC50 in assay [1] is 445 nM. Further, the inhibition constant Ki in assay [2] amounted to 29 nM.

On to `Fc1ccc(CN[C@H]2Cc3cc(Cl)ccc3-n3c(nnc3[C@H]3CC[C@H](Oc4ccccn4)CC3)C2)cc1` [Example 83, (S-8-chloro-N-4-fluorobenzyl)-1-[trans-4-pyridin-2-loxcyclohexyl]-5,6-dihydro-4H-[1,2,4]triazolo[4,3-a][1]benzazepine-5-amine], for which the IC50 in assay [1] is 44 nM. For the same molecule, the inhibitory constant (Ki) in assay [2] was determined as 4.4 nM.

As for `N#Cc1ccc2c(c1)CC1(Cc3nnc([C@H]4CC[C@H](C(F)(F)F)CC4)n3-2)OCCO1` [Example 84, 1′-[trans-4-(trifluoromethyl)cyclohexyl]-4′H,6′H-spiro[1,3-dioxolane-2,5′-[1,2,4]triazolo[4,3-a][1]benzazepine]-8′-carbonitrile], in assay [1], the 50% inhibitory concentration (IC50) was found to be 72 nM. Further, the Ki in assay [2] is 11.4 nM.

Consider `O=C([C@H]1CC[C@H](c2nnc3n2-c2ccc(Br)cc2CC2(C3)OCCO2)CC1)N1CCCCC1` [Example 85, [Trans-4-(8′-bromo-4′H,6′H-spiro[1,3-dioxolane-2,5′-[1,2,4]triazolo[4,3-a][1]benzazepin]-1′-yl)cyclohexyl](piperidin-1-yl)methanone], for which, in assay [1], the half-maximal inhibitory concentration (IC50) is 1.8 nM. Also, in assay [2], the Ki was 0.4 nM.

Take `COC(=O)[C@H]1CC[C@H](c2nnc3n2-c2ccc(Br)cc2CC(=O)C3)CC1` [Example 86, methyl trans-4-(8-bromo-5-oxo-5,6-dihydro-4H-[1,2,4]triazolo[4,3-a][1]benzazepin-1-yl)cyclohexane carboxylate]: the half-maximal inhibitory concentration (IC50) in assay [1] came to 12 nM. Further, in assay [2], the inhibition constant Ki amounted to 2.2 nM.

With `O=C1Cc2cc(Br)ccc2-n2c(nnc2[C@H]2CC[C@H](C(=O)N3CCCCC3)CC2)C1` [Example 87, 8-bromo-1-[trans-4-(piperidin-1-ylcarbonyl)cyclohexyl]-4H-[1,2,4]triazolo[4,3-a][1]benzazepin-5(6H)-one], the 50% inhibitory concentration (IC50) in assay [1] was 57 nM. Also, the Ki in assay [2] is 2.5 nM.

Regarding `N#Cc1ccc2c(c1)CC1(Cc3nnc([C@H]4CC[C@H](C(=O)N5CCCCC5)CC4)n3-2)OCCO1` [Example 90, 1′-[trans-4-(piperidin-1-ylcarbonyl)cyclohexyl]-4′H,6′H-spiro[1,3-dioxolane-2,5′-[1,2,4]triazolo[4,3-a][1]benzazepin]-8′-carbonitrile], the concentration for half-maximal inhibition (IC50) in assay [1] is 152 nM. Besides, the Ki in assay [2] is 10.2 nM.

Turning to `O=C1Cc2cc(Br)ccc2-n2c(nnc2[C@H]2CC[C@H](C(F)(F)F)CC2)C1` [Example 91, 8-bromo-1-[trans-4-(trifluoromethyl)cyclohexyl]-4H-[1,2,4]triazolo[4,3-a][1]benzazepin-5(6H)-one], in assay [1], the IC50 was determined as 45 nM. Besides, the Ki in assay [2] is 9.1 nM.

For `O=C([C@H]1CC[C@H](c2nnc3n2-c2ccc(Br)cc2CC(O)C3)CC1)N1CCCCC1` (stereo partly drawn) [Example 92, [Trans-4-(8-bromo-5-hydroxy-5,6-dihydro-4H-[1,2,4]triazolo[4,3-a][1]benzazepin-1-yl)cyclohexyl](piperidin-1-yl)methanone], the IC50 in assay [1] is 16 nM. For the same molecule, the Ki in assay [2] amounted to 1.9 nM.

`OC1Cc2cc(Br)ccc2-n2c(nnc2[C@H]2CC[C@H](C(F)(F)F)CC2)C1` (stereo partly shown) [Example 93]: in assay [1], the IC50 is 16 nM. Moreover, the Ki in assay [2] was determined as 3.2 nM.
